Experimental data: patent US9458110B2, “Phenylpyrazole derivatives as potent ROCK1 and ROCK2 inhibitors” (BRISTOL-MYERS SQUIBB COMPANY, priority 2013, dated 2016)
pIC50: −log10 of the molar value. Read-outs that look alike come from different tables or passages of the source.

What was measured:
[1] = biological target: ROCK1 (Homo sapiens (Human), UniProt Q13464); assay: ROCK assay (Caliper LABCHIP peptide phosphorylation), ROCK1; type: biochemical; settings: 5 μM ATP, 1.5 μM peptide substrate;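 also: Read-out is separation of phosphorylated from unphosphorylated peptide, with kinase activity inhibition computed at every concentration of a dose-response series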
Chain of ROCK1 (Q13464 whole entry, species assumed): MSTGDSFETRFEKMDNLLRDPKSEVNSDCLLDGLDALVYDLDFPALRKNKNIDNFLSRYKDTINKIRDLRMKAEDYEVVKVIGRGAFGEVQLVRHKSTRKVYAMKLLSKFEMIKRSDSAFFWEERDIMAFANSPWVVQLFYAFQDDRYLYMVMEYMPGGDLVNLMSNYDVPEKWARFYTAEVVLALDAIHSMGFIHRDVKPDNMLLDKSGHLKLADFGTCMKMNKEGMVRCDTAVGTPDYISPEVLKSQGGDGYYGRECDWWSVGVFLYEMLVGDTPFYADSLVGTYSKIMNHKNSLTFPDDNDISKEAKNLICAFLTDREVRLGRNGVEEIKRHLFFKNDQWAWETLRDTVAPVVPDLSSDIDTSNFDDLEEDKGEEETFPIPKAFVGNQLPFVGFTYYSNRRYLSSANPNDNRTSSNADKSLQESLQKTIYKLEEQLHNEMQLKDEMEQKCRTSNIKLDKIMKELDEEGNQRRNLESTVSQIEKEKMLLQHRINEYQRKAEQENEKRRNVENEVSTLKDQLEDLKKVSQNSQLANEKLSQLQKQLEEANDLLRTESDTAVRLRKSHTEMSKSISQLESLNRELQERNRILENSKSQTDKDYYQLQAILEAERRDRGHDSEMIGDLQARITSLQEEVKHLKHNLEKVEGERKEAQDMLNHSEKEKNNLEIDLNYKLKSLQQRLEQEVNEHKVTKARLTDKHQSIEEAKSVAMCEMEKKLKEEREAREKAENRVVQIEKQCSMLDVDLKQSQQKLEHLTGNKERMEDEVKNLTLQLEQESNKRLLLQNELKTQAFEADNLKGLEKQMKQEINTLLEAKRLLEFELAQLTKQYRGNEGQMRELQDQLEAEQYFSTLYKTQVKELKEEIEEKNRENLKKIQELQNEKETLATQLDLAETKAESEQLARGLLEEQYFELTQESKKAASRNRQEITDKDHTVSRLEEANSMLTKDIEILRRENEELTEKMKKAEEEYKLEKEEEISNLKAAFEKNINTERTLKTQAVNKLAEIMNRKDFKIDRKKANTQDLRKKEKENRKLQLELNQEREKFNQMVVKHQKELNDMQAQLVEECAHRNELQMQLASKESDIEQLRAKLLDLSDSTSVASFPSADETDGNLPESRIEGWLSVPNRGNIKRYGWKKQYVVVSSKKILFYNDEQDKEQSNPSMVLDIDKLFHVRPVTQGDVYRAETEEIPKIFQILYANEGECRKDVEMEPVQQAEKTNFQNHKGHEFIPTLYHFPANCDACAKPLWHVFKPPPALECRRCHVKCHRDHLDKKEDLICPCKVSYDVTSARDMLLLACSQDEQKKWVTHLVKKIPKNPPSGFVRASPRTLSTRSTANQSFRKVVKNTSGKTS

[2] = biological target: ROCK2 (Homo sapiens (Human), UniProt O75116); assay: ROCK assay (Caliper LABCHIP peptide phosphorylation), ROCK2; type: biochemical; settings: 5 μM ATP, 1.5 μM peptide substrate;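 also: reaction stopped with EDTA, then phosphorylated and unphosphorylated peptide resolved by microfluidic electrophoresis, kinase inhibition computed at each compound concentration in dose-response series, DMSO under 2%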
Chain of ROCK2 (O75116 whole entry, species assumed): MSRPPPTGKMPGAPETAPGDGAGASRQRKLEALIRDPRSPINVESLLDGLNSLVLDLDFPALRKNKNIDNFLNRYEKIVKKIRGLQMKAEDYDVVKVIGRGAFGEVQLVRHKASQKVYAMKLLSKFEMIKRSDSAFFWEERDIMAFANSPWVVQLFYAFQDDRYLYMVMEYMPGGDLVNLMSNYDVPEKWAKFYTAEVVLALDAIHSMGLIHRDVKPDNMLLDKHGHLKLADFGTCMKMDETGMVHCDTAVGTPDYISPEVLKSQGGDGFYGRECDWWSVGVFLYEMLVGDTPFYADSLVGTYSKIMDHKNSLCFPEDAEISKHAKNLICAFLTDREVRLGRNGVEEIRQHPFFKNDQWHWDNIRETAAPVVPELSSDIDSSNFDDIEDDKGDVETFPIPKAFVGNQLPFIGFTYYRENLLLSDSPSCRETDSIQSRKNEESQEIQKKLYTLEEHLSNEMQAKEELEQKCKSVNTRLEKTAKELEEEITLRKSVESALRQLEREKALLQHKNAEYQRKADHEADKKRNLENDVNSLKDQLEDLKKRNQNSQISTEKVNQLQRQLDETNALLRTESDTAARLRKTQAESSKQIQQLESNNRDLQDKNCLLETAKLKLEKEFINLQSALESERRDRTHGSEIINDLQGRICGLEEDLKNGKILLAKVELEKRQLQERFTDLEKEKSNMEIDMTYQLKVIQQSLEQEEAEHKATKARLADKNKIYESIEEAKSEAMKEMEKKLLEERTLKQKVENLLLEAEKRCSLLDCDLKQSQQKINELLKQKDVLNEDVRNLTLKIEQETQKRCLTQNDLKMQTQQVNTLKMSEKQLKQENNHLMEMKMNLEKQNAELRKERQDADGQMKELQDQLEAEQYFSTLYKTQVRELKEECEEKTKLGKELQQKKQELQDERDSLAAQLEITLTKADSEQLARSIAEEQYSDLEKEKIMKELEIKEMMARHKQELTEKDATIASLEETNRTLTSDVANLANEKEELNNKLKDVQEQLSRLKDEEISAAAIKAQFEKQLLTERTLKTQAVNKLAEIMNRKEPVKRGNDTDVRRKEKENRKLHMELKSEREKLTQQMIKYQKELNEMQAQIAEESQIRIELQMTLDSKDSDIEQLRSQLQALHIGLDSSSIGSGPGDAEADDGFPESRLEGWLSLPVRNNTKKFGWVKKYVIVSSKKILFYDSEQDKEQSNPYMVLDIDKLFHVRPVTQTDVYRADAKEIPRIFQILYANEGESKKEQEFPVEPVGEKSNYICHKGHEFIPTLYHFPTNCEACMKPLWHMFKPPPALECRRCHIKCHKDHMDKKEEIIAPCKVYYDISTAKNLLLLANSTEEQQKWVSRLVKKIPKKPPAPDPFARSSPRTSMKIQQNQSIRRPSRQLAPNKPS

[3] = tested on: neointimal formation; settings: rats, balloon injury model; cited from earlier work
[4] = tested on: congestive heart failure in Dahl salt-sensitive rats; settings: cited from earlier work
[5] = tested on: rat models of hypertension; settings: cited from earlier work
[6] = tested on: IL-1 beta-induced coronary stenosis; settings: long term treatment; cited from earlier work

Compound	pIC50 [1]	pIC50 [2]	further results
CC(O)c1cc(C(=O)N[C@H](C)c2ccccc2)ccc1-c1cn[nH]c1 (stereo partly drawn) [Example 281, 3-(1-hydroxyethyl)-N-[(1R)-1-phenylethyl]-4-(1H-pyrazol-4-yl)benzamide]	7.57	8.01	–
CC(O)c1cc(C(=O)N[C@H](C)c2ccccc2F)ccc1-c1cn[nH]c1 (stereo partly drawn) [Example 282, N-[(1R)-1-(2-fluorophenyl)ethyl]-3-(1-hydroxyethyl)-4-(1H-pyrazol-4-yl)benzamide]	6.62	6.47	–
CC(O)c1cc(C(=O)N[C@H](C)c2ccccc2F)ccc1-c1cn[nH]c1 (stereo partly drawn) [Example 283, N-[(1R)-1-(2-fluorophenyl)ethyl]-3-(1-hydroxyethyl)-4-(1H-pyrazol-4-yl)benzamide]	7.30	8.27	–
CCC(O)c1cc(C(=O)N[C@H](C)c2ccccc2)ccc1-c1cn[nH]c1 (stereo partly drawn) [Example 284, 3-(1-hydroxypropyl)-N-[(1R)-1-phenylethyl]-4-(1H-pyrazol-4-yl)benzamide]	6.07	6.74	–
CCC(O)c1cc(C(=O)N[C@H](C)c2ccccc2)ccc1-c1cn[nH]c1 (stereo partly drawn) [Example 285, 3-(1-hydroxypropyl)-N-[(1R)-1-phenylethyl]-4-(1H-pyrazol-4-yl)benzamide]	< 5.70	5.83	–
CCC(O)c1cc(C(=O)N[C@H](C)c2ccccc2)ccc1-c1cn[nH]c1 (stereo partly drawn) [Example 286, 3-(1-hydroxypropyl)-N-[(1R)-1-phenylethyl]-4-(1H-pyrazol-4-yl)benzamide]	7.01	6.72	–
CC(O)c1cc(C(=O)NC(C)c2c(F)cccc2F)ccc1-c1cn[nH]c1 (stereo not shown) [Example 287, N-[1-(2,6-difluorophenyl)ethyl]-3-(1-hydroxyethyl)-4-(1H-pyrazol-4-yl)benzamide]	6.95	7.56	–
CC(O)c1cc(C(=O)NC(C)c2c(F)cccc2F)ccc1-c1cn[nH]c1 (stereo not shown) [Example 288, N-[1-(2,6-difluorophenyl)ethyl]-3-(1-hydroxyethyl)-4-(1H-pyrazol-4-yl)benzamide]	6.82	6.35	–
CC(O)c1cc(C(=O)NCc2c(F)cccc2Cl)ccc1-c1cn[nH]c1 (stereo not shown) [Example 289, N-[(2-chloro-6-fluorophenyl)methyl]-3-(1-hydroxyethyl)-4-(1H-pyrazol-4-yl)benzamide]	6.56	7.13	–
CC(O)c1cc(C(=O)NCc2c(F)cccc2Cl)ccc1-c1cn[nH]c1 (stereo not shown) [Example 290, N-[(2-chloro-6-fluorophenyl)methyl]-3-(1-hydroxyethyl)-4-(1H-pyrazol-4-yl)benzamide]	5.71	5.75	–
CC(O)c1cc(C(=O)NCc2c(F)cccc2Cl)ccc1-c1cn[nH]c1 (stereo not shown) [Example 291, N-[(2-chloro-6-fluorophenyl)methyl]-3-(1-hydroxyethyl)-4-(1H-pyrazol-4-yl)benzamide]	6.86	6.98	–
CC(O)c1cc(C(=O)N[C@H](C)c2c(F)cccc2F)ccc1-c1cn[nH]c1 (stereo partly drawn) [Example 292, N-[(1R)-1-(2,6-difluorophenyl)ethyl]-3-(1-hydroxyethyl)-4-(1H-pyrazol-4-yl)benzamide]	5.94	5.82	–
CC(O)c1cc(C(=O)N[C@H](C)c2c(F)cccc2F)ccc1-c1cn[nH]c1 (stereo partly drawn) [Example 293, N-[(1R)-1-(2,6-difluorophenyl)ethyl]-3-(1-hydroxyethyl)-4-(1H-pyrazol-4-yl)benzamide]	7.01	7.79	–
CC(=O)c1cc(C(=O)N[C@H](C)c2ccccc2)ccc1-c1cn[nH]c1 [Example 294, (R)-3-Acetyl-N-(1-phenylethyl)-4-(1H-pyrazol-4-yl)benzamide]	< 5.70	6.21	–
COC(=O)c1cc(C(=O)N[C@H](C)c2ccc(F)cc2)ccc1-c1cn[nH]c1 [Example 295, (R)-Methyl 5-((1-(4-fluorophenyl)ethyl)carbamoyl)-2-(1H-pyrazol-4-yl)benzoate]	5.77	6.25	–
C[C@@H](NC(=O)c1ccc(-c2cn[nH]c2)c(N(C)C)c1)c1ccc(F)cc1 [Example 296, (R)-3-(Dimethylamino)-N-(1-(4-fluorophenyl)ethyl)-4-(1H-pyrazol-4-yl)benzamide]	6.84	7.26	–
CNc1cc(C(=O)N[C@H](C)c2ccc(F)cc2)ccc1-c1cn[nH]c1 [Example 297, (R)-N-(1-(4-Fluorophenyl)ethyl)-3-(methylamino)-4-(1H-pyrazol-4-yl)benzamide]	5.75	6.29	–
COc1cc(C(=O)N(Cc2ccccc2F)CC(C)(C)O)ccc1-c1cn[nH]c1 [Example 298, N-(2-Fluorobenzyl)-N-(2-hydroxy-2-methylpropyl)-3-methoxy-4-(1H-pyrazol-4-yl)benzamide]	6.08	6.18	–

Compound	pIC50 [1]	pIC50 [2]	further results
COC(=O)c1n[nH]cc1-c1ccc(C(=O)N[C@H](C)c2cccc(OC)c2)c(OC)c1 [Example 302, (R)-Methyl 4-(3-methoxy-4-((1-(3-methoxyphenyl)ethyl)carbamoyl)phenyl)-1H-pyrazole-3-carboxylate]	7.15	7.16	–
COc1cccc([C@@H](C)NC(=O)c2ccc(-c3c[nH]nc3C#N)cc2OC)c1 [Example 303, 4-(3-Cyano-1H-pyrazol-4-yl)-2-methoxy-N-[(1R)-1-(3-methoxyphenyl)ethyl]benzamide]	7.51	7.68	–
COc1cccc([C@@H](C)NC(=O)c2ccc(-c3c(C)n[nH]c3C)cc2OC)c1 [Example 304, 4-(3,5-Dimethyl-1H-pyrazol-4-yl)-2-methoxy-N-[(1R)-1-(3-methoxyphenyl)ethyl]benzamide]	6.88	7.61	–
COc1cccc([C@@H](C)NC(=O)c2ccc(-c3c[nH]nc3C)cc2OC)c1 [Example 305, 4-(3-Methyl-1H-pyrazol-4-yl)-2-methoxy-N-[(1R)-1-(3-methoxyphenyl)ethyl]benzamide]	8.67	9.19	–
COc1cccc([C@@H](C)NC(=O)c2ccc(-c3c[nH]nc3CO)cc2OC)c1 [Example 306, (R)-4-(3-(Hydroxymethyl)-1H-pyrazol-4-yl)-2-methoxy-N-(1-(3-methoxyphenyl)ethyl)benzamide]	7.20	7.36	–
COc1cccc([C@@H](C)NC(=O)c2ccc(-c3c[nH]nc3C(C)O)cc2OC)c1 (stereo partly drawn) [Example 307, 4-(3-(1-Hydroxyethyl)-1H-pyrazol-4-yl)-2-methoxy-N-((R)-1-(3-methoxyphenyl)ethyl)benzamide]	6.26	6.69	–
COc1cccc([C@@H](C)NC(=O)c2ccc(-c3cn[nH]c3)cc2OCCN(C)C)c1 [Example 308, 2-[2-(Dimethylamino)ethoxy]-N-[(1R)-1-(3-methoxyphenyl)ethyl]-4-(1H-pyrazol-4-yl)benzamide]	6.55	7.43	–
Cc1n[nH]cc1-c1cc(OCCN(C)C)c(C(=O)N[C@H](C)c2ccccc2)cc1F [Example 309, 2-[2-(dimethylamino)ethoxy]-5-fluoro-4-(3-methyl-1H-pyrazol-4-yl)-N-[(1R)-1-phenylethyl]benzamide]	< 5.70	6.11	–
COc1cccc([C@@H](C)NC(=O)c2ccc(-c3c[nH]nc3C)cc2OCCN(C)C)c1 [Example 311, 2-[2-(dimethylamino)ethoxy]-N-[(1R)-1-(3-methoxyphenyl)ethyl]-4-(3-methyl-1H-pyrazol-4-yl)benzamide]	7.65	7.46	–
COc1cc(-c2cn[nH]c2)cc(F)c1C(=O)N[C@H](C)c1ccccc1 [Example 312, 2-fluoro-6-methoxy-N-[(1R)-1-phenylethyl]-4-(1H-pyrazol-4-yl)benzamide]	< 5.70	5.83	–
CCOc1cc(-c2cn[nH]c2)ccc1C(=O)N[C@H](C)c1cccc(OC)c1 [Example 313, 2-ethoxy-N-[(1R)-1-(3-methoxyphenyl)ethyl]-4-(1H-pyrazol-4-yl)benzamide]	7.68	8.80	–
COCCOc1cc(-c2cn[nH]c2)ccc1C(=O)N[C@H](C)c1cccc(OC)c1 [Example 314, 2-(2-methoxyethoxy)-N-[(1R)-1-(3-methoxyphenyl)ethyl]-4-(1H-pyrazol-4-yl)benzamide]	7.77	8.47	–
COc1cccc([C@@H](C)NC(=O)c2ccc(-c3cn[nH]c3)cc2OCCO)c1 [Example 315, 2-(2-hydroxyethoxy)-N-[(1R)-1-(3-methoxyphenyl)ethyl]-4-(1H-pyrazol-4-yl)benzamide]	8.14	8.64	–
COc1ccc(F)c(C(C)NC(=O)c2ccc(-c3cn[nH]c3)c(C(C)O)c2)c1 (stereo not shown) [Example 316, N-[1-(2-fluoro-5-methoxyphenyl)ethyl]-3-(1-hydroxyethyl)-4-(1H-pyrazol-4-yl)benzamide]	7.09	7.96	–
C[C@@H](N)[C@H]1CC[C@H](C(=O)Nc2ccncc2)CC1 [Example Y-27632]	–	–	neointimal formation [3]: inhibited neointimal formation; ventricular hypertrophy, fibrosis and function [4]: improve ventricular hypertrophy, fibrosis and function; blood pressure ([5]; control rats): only a minor effect on blood pressure; blood pressure ([5]; spontaneously hypertensive rat, renal hypertensive rat and deoxycortisone acetate salt hypertensive rat models): significantly decrease blood pressure
O=S(=O)(c1cccc2cnccc12)N1CCCNCC1 [fasudil]	–	–	coronary stenosis and coronary constrictive remodeling [6]: progressively reduce coronary stenosis, as well as promote a regression of coronary constrictive remodeling
N-(3- chlorobenzyl)- 3-methoxy-4- (1H-pyrazol-4- yl)benzamide [Example 34]	6.91	7.30	–
N-(4- chlorobenzyl)- 3-methoxy-4- (1H-pyrazol-4- yl)benzamide [Example 33]	7.58	8.31	–
